Source: US5821262A, “Hydroxamic acid derivatives as inhibitors of cytokine production” (British Biotech Pharmaceuticals Limited, priority 1993, dated 1998)

Legend:
[1] = system: TNFα release from human monocytic cell line U937; test: inhibition of PMA-stimulated TNFα release from U937 cells (ELISA); type: cell-based; conditions: U-937, PMA 50 nM, 18 hours, 37° C., read-out: IC50, concentration which inhibits the release of TNFα by 50% relative to control culture
Procedure: The ability of example compounds of the invention to inhibit the release of TNF was investigated. The assay is based on the ability of phorbol myristate acetate (PMA) to stimulate the release of TNF a from a human monocytic cell line, U937.
U937 cells cultured in RPMI 1640 medium+5% foetal calf serum are centifuged at 1000×g for 5 minutes and then resuspended in medium at 2×10^6 /ml. 1 ml of cell suspension is aliquoted into individual wells of 24-well plates. Test compounds are dissolved in dimethyl sulphoxide (DMSO) at a stock concentration of 100 mM, then diluted to 50× the final required concentration with RPMI 1640 medium. 20 μl of the diluted compounds are added to U937 cells in duplicate wells. TNF a release is stimulated by addition of PMA to the cells at a final concentration of 50 nM. Appropriate control cultures are set up in duplicate. The plates are incubated for 18 hours at 37° C., 5% CO2, then centrifuged at 1000×g for 5 minutes. A specific ELISA for TNFα obtained from British Bio-technology Products Limited, Abingdon, England is used to measure TNFα levels in the culture supernatants
The average concentration of test compound which inhibits the release of TNF a by 50% relative to the control culture was assessed.

TNF = test: inhibition of endotoxin (LPS) induced TNF production in vivo, serum TNF in anaesthetised rats; design: species or system male CD rats; conditions: rat, 10 mg/kg intravenous 15 minutes prior to LPS 50 μg/kg, infusion maintained 2 hours
Procedure: The compound of Example 1 was assessed for its ability to inhibit release of endotoxin induced TNF production in vivo.
Male Male CD rats (Charles River, UK) weighing between 300 g-400 g were anaesthetised with an intra-peritoneal injection of a mixture of 62.5 mg·kg^-1 thiopental and 22.5 mg·kg^-1 sodium pentobarbitone (Thiopental, Sigma Chemical Co., UK; Sodium pentobarbitone (Sagatal), May and Baker., UK). The trachea was exposed and cannulated to allow spontaneous respiration through a patent airway. The left jugular vein was exposed and cannulated for the administration of LPS. The right femoral artery was exposed and cannulated for withdrawal of blood samples.
Blood samples (1 ml) were removed just prior to bolus administration of either LPS (E. coli serotype 0111:b4, Difco Laboratories, USA) or saline (NaCL 0.9% w/v) and at intervals of 1 hour and 2 hours after LPS. Removed blood was replaced with equal amounts of saline.
The peak of TNF release was at the 1 hour timepoint. […] levels were expressed in units/ml where 1 unit is the equivalent of 1 pg of mouse TNFα.
Rat serum TNF levels were measured using a mouse TNFα reference standard. The commercial ELISA kits were from Genzyme.
The compound of example 1 was administered intravenously to aneasthetised rats at a dose of 10 mg·kg^-1, 15 minutes prior to LPS administration. […]

stromelysin = stromelysin (Homo sapiens, UniProt P08254); test: stromelysin inhibition, 14C acetylated casein, procedure of Cawston et al; type: biochemical; conditions: 37°, 16 hours, pH 7.5
stromelysin, sequence (P08254 100-477): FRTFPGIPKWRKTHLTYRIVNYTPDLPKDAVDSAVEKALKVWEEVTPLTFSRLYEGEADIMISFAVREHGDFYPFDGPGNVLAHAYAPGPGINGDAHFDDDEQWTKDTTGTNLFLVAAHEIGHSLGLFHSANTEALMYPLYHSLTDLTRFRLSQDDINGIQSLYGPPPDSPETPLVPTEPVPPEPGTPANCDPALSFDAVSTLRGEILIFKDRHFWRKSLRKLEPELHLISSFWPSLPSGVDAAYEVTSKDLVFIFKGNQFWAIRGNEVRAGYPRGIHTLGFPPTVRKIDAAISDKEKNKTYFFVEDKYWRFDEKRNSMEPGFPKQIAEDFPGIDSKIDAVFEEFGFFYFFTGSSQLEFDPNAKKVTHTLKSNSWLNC
Procedure: The potency of compounds of Examples 1 to 6 to act as inhibitors of stromelysin was determined by the procedure of Cawston et al, (Biochem. J., 195, 159-165, 1981), hereby incorporated by reference, whereby a 1 mM solution of the compound being tested, or a dilution thereof, was incubated at 37° for 16 hours with stromelysin and ^14 C acetylate casein (buffered with 25 mM Hepes, pH 7.5 containing 5 mM CaCl2, 0.05% Brij 35 and 0.02% NaN3). The casein was acetylated ^14 C casein prepared by the method of Cawston et al (ibid).

collagenase = biological target: T1, collagenase (Homo sapiens, UniProt P03956); test: collagenase inhibition, 14C collagen, procedure of Cawston and Barrett; type: biochemical; conditions: 37°, 16 hours, pH 7.5
T1 sequence (P03956 100-469): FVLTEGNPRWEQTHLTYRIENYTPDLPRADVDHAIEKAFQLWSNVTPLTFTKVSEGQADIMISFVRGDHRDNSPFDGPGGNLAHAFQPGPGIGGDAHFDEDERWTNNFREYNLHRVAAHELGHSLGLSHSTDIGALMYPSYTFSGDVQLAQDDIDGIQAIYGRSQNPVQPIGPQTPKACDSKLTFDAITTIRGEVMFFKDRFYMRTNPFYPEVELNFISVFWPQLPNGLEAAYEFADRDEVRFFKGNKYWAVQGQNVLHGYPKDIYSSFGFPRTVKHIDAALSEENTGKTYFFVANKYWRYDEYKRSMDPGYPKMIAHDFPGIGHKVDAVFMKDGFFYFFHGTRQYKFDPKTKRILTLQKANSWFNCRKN
From the text: The collagen was acetylated ^14 C collagen prepared by the method of Cawston and Murphy, (Methods in Enzymology, 80, 711, 1981), hereby incorporated by reference. The samples were centrifuged to sediment undigested collagen, and an aliquot of the radioactive supernatant removed for assay on a scintillation counter as a measure of hydrolysis.

IC50 [1] [nM] | IC50 (stromelysin) [nM] | IC50 (collagenase) [nM] | Compound | reduction of LPS-induced release of TNF, 1 hour timepoint (TNF; 1 hour after LPS) | reduction of LPS-induced release of TNF, 2 hour timepoint (TNF; 2 hours after LPS)
< 50000 |  |  | CNC(=O)[C@H](CCCCNC(C)=O)NC(=O)[C@H](CC(C)C)[C@H](CSc1ccc(O)cc1)C(=O)NO [Example 1, N^2-[4-(N-Hydroxyamino)-3S-(4-hydroxyphenylthiomethyl)-2R-isobutylsuccinyl]-N^6-acetyl-L-lysine-N^1-methylamide] | more than 50% | more than 50%
< 50000 | 15 | 15 | CNC(=O)[C@H](CCCCNC(=O)OC(C)(C)C)NC(=O)[C@H](CC(C)C)[C@H](CSc1ccc(O)cc1)C(=O)NO [Example 2, N^2-[4-(N-Hydroxyamino)-3S-(4-hydroxyphenylthiomethyl)-2R-isobutylsuccinyl]-N^6-tert-butyloxycarbonyl-L-lysine-N^1-methylamide] |  | 
< 50000 | 50 | 30 | CNC(=O)[C@H](CCCCN(CSc1ccc(O)cc1)C(=O)OC(C)(C)C)NC(=O)[C@H](CC(C)C)[C@H](CSc1ccc(O)cc1)C(=O)NO [Example 3, N^2-[4-(N-Hydroxyamino)-3S-(4-hydroxyphenylthiomethyl)-2R-isobutylsuccinyl]-N^6-tert-butyloxycarbonyl-N^6-(4-hydroxyphenylthiomethyl)-L-lysine-N^1-methylamide] |  | 
< 50000 | 20 |  | CNC(=O)[C@H](CCCCNC(=O)OC(C)(C)C)NC(=O)[C@H](CC(C)C)[C@H](CSc1cccs1)C(=O)NO [Example 4, N^2-[4-(N-Hydroxyamino)-3S-(2-thienythiomethyl)-2R-isobutylsuccinyl]-N^6-tert-butyloxycarbonyl-L-lysine-N^1-methylamide] |  | 
 | 40 | 5 | CNC(=O)[C@@H](NC(=O)[C@H](CC(C)C)[C@H](CSc1ccc(O)cc1)C(=O)NO)[C@@H](C)OC(C)(C)C [Example 5, N^2-[4-(N-Hydroxyamino)-3S-(4-hydroxyphenylthiomethyl)-2R-isobutylsuccinyl]-O-tert-butyl-L-threonine-N^1-methylamide] |  | 
< 50000 | 70 | 6 | CNC(=O)CC[C@H](NC(=O)[C@H](CC(C)C)[C@H](CSc1ccc(O)cc1)C(=O)NO)C(=O)NC [Example 6, N^2-[4-(N-Hydroxyamino)-3S-(4-hydroxyphenylthiomethyl)-2R-isobutylsuccinyl]-L-glutamine-N^1,N^5-dimethylamide] |  | 
